Values quoted from earlier work as cited in patent publication US20200390743A1, “Methods and Compositions For Improving Outcomes of Cancer Patients” (Reven IP HoldCo LLC, priority 2019, published 2020).

Key:
[1] = rats, 100 mg/kg body weight daily
[2] = 241 osteoporotic women

CC(C)=CCC/C(C)=C/CC/C(C)=C/CC/C(C)=C/CC1=C(C)C(=O)c2ccccc2C1=O [Vitamin K2]
calcium in kidneys and aorta induced by megadose of synthetic vitamin D [1]: inhibited the increase in calcium
total cholesterol levels, lipid peroxidation, ester cholesterol deposition in the aorta and factor X activity in plasma (compared to the control group): reduce
atherosclerotic plaque progression in the aorta and pulmonary arteries (rabbits, 1-10 mg/kg daily for 10 weeks): inhibited the atherosclerotic plaque progression
fracture incidence ([2]; 45 mg/day vitamin K2 and 150 mg elemental calcium, two years, 30% in control group): 10%
lumbar bone mineral density ([2]; 45 mg/day, after two years): maintain
